Measured values as given in US8765123B1, “Compositions and methods for the treatment and prevention of infections caused by Staphylococcus aureus bacteria” (Rutgers, The State University of New Jersey, priority 2007, dated 2014).
“Also recorded” adds a separate entry of the source.

How the values were obtained:
Assay type in all cases: cell-based, Staphylococcus aureus
[1] = tested on: S. aureus biofilm cells; assay: Killing of biofilm cells in microplate wells, CFU/well enumeration; details: 24-h biofilm; deoxyribonuclease I alone, 100 μg/ml for 10 min; FIG. 8
Protocol: Biofilms were grown for 24 h in 96-well microtiter plates as described above. Biofilms were rinsed once with water and then treated with 200 μl of TSB medium containing 100 μg/ml of deoxyribonuclease I. Control wells were treated with 200 μl of TSB medium alone. […] Control wells received 20 μl of water. […] This reaction was carried out in 100 μg/ml in 150 mM NaCl, 1 mM CaCl2 as described above. After 10 min, cells were mixed and then serial dilutions were plated on agar. For S. aureus biofilms treated with deoxyribonuclease I, cells were mixed and then a 50-μl aliquot of cells was diluted in 50 ml of phosphate buffered saline. The cells were passed through an analytical test filter funnel (no. 145-2020; Nalgene, Rochester, N.Y.), and the filter was rinsed with 250 ml of sterile water, aseptically removed from the filter unit, and placed on a blood agar plate. Colonies were enumerated after 24 h.

[2] = tested on: S. aureus SH1000 cells; assay: Autoaggregation and biofilm formation in PET tubes with supplemented TSB medium; details: medium supplemented with 100 μg/ml, 16 h
Protocol: (§1) S. aureus Strain SH1000 (Horsburgh et al., 2002. J. Bacteriol. 184:5457-5467) was used in all of the following examples. The bacteria were passaged weekly on blood agar and stored at 4° C. Biofilms were cultured in Tryptic Soy broth (Becton-Dickinson, Sparks, Md.) containing 6 g of yeast extract and 8 g of glucose per liter (TSB medium). All cultures were incubated at 37° C.
These experiments were carried out as described above, except that biofilms were grown in 16-mm×100-mm PET tubes (2 ml culture vol) in a rotary shaker for 16 h.

[3] = tested on: S. aureus Strain SH1000 biofilms; assay: Detachment of pre-formed S. aureus biofilms in microtiter plate wells, crystal violet staining
Protocol: as §1
A biofilm formation assay was carried out as follows. A loopful of cells from an agar plate was transferred to a polypropylene microcentrifuge tube containing 200 μl of TSB medium. The cells were crushed with a disposable pellet pestle, vortexed for 30 sec, diluted to 1 ml in fresh TSB medium, and then passed through a 5-μm pore-size syringe filter to remove large clumps of cells as previously described (Kaplan & Fine, 2002. Appl. Environ. Microbiol. 68:4943-4950). Filtered cells were diluted to 10^3-10^5 CFU/ml in TSB medium. Aliquots of cells (200 μl each) were transferred to the wells of a 96-well tissue-culture-treated polystyrene microtiter plate (Falcon no. 324662, Becton-Dickinson) and the plate was incubated for 24 h. The biofilms were rinsed once with water and then treated with 200 μl of deoxyribonuclease I (bovine deoxyribonuclease I, purchased from Sigma Chemical Company) at 100 μg/ml in 150 mM NaCl, 1 mM CaCl2. Control biofilms were treated with 200 μl of 150 mM NaCl, 1 mM CaCl2 alone. After 10 min at 37° C., biofilms were rinsed with water and then dried. Biofilms were stained for 1 min with 200 μl of Gram's crystal violet stain (catalog no. 23255960, Fisher Scientific, Fair Lawn, N.J.) and then rinsed with water and dried.
The concentration of deoxyribonuclease I was 100 μg/ml and the treatment time was 10 min. In this case, the amount of biofilm biomass remaining in the well was quantitated by measuring the A595 of the crystal violet stained biomass as described above, and the percent of biofilm cell detachment was calculated using the formula: 1−(A595[buffer+deoxyribonuclease I]/A595[buffer alone])×100.

[4] = tested on: SH1000 biofilms; assay: Biofilm formation in 96-well microtiter plates in supplemented TSB medium, crystal violet A595

## deoxyribonuclease I
[1]
  decrease in CFU/well values (killing of biofilm cells): resistant to killing; also recorded: did not exhibit a significant decrease
[2]; FIG. 5
  biofilm formation in tubes at the air-liquid interface (crystal violet staining): much less biofilm formation; also recorded: inhibited biofilm formation at the air-liquid interface
[2]; rotary shaker, FIG. 4
  autoaggregation (clumping) of cells: much less clumping; also recorded: formed smaller aggregates
[3]; 24-h-old biofilm, 100 μg/ml, 10 min treatment, FIG. 1
  detachment of biofilm (crystal violet staining material remaining in the well): significant detachment of the biofilm; also recorded: nearly complete detachment
[3]; 24-h-old biofilm, 10 min treatment, FIG. 2
  concentration dependence of biofilm detachment (Absorbance at 595 nm): dependent on the deoxyribonuclease I concentration
[3]; 24-h-old biofilm, concentrations between 0.1 and 10 μg/ml, 10 min, FIG. 2
  detachment of biofilm (A595 of crystal violet): partial detachment
[3]; 24-h-old biofilm, concentrations greater than 10 μg/ml, 10 min, FIG. 2
  detachment of biofilm (A595 of crystal violet): near complete detachment
[3]; 24-h-old biofilm, concentrations less than 0.1 μg/ml, 10 min, FIG. 2
  detachment of biofilm (A595 of crystal violet): little detachment
[3]; biofilms grown for 5, 8, 12 or 24 h, 100 μg/ml, 10 min, FIG. 3
  detachment of biofilms of different age (percent of biofilm cell detachment from A595): capable of detaching; also recorded: significant detachment of all of the S. aureus biofilms, regardless of their age
[4]; increasing concentrations in medium, FIG. 7
  inhibition of biofilm formation (A595 of crystal violet stained biomass), concentration dependence: dependent on the deoxyribonuclease I concentration; also recorded: inhibited SH1000 biofilm formation in a dose-dependent manner
[4]; medium supplemented with 100 μg/ml, 24 h, FIG. 6
  biofilm colony morphology in microplate wells: incapable of forming distinct biofilm colonies; also recorded: formed a dense film that uniformly covered the microwell surface, but which readily detached after gentle rinsing
